Source: PubChem BioAssay (NCI)
Where “and” joins values, the source holds several entries; their conditions need not be identical. Equal values may be shown once.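 Tested at 5 concentrations; 48 h exposure; 96-well plates; endpoints linearly interpolated, else capped at highest concentration. GI50 is the concentration that inhibits growth by half. TGI marks complete inhibition of growth.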

Key:
Assay in all cases: growth of human tumour cells (NCI), 48 h
HOP-92 NSCLC = tested on: HOP-92 NSCLC
SK-MEL-2 melanoma = tested on: SK-MEL-2 melanoma
SF-295 CNS = tested on: SF-295 CNS
OVCAR-8 ovarian = tested on: OVCAR-8 ovarian
SF-268 CNS = tested on: SF-268 CNS
A549 NSCLC = tested on: A549 NSCLC
SF-539 CNS = tested on: SF-539 CNS
NCI-H460 lung = tested on: NCI-H460 lung
HT29 colon = tested on: HT29 colon
HS 578T breast = tested on: HS 578T breast

Row | Structure (SMILES) | TGI (HOP-92 NSCLC) | TGI (SK-MEL-2 melanoma) | TGI (SF-295 CNS) | TGI (OVCAR-8 ovarian) | TGI (SF-268 CNS) | TGI (A549 NSCLC) | TGI (SF-539 CNS) | TGI (NCI-H460 lung) | TGI (HT29 colon) | TGI (HS 578T breast) | GI50 (SF-295 CNS) | GI50 (HS 578T breast) | GI50 (SF-539 CNS) | GI50 (HT29 colon) | GI50 (HOP-92 NSCLC) | GI50 (SK-MEL-2 melanoma) | GI50 (OVCAR-8 ovarian)
1 | C[C@]12CC[C@@H]3c4ccc(O)cc4CC[C@H]3[C@@H]1C/C(=C\c1ccc(C#N)cc1)C2=O | 89.1 µM | > 100 µM | > 100 µM | > 100 µM | > 100 µM | > 100 µM | > 100 µM | > 100 µM | 75.2 µM |  |  |  |  |  |  |  | 
2 | CC1(C)OC2COC3([C@@H]4OC(C)(C)O[C@@H]4CO)OC(C)(C)OC3C2O1 (stereo partly drawn) | > 100 µM | > 100 µM | > 100 µM | > 100 µM |  | > 100 µM | > 100 µM | > 100 µM |  |  |  |  |  |  |  |  | 
3 | CCOC(=O)c1ccc(Nc2nc3ccc(C(F)(F)F)cc3nc2C(=O)OCC)cc1 | > 100 µM |  | > 100 µM | > 100 µM | > 100 µM | > 100 µM | > 100 µM | > 100 µM | > 100 µM | > 100 µM |  |  |  |  |  |  | 
4 | CC(=O)Oc1c(C)c(C)c2c(c1C)CCC(C)(CC(=O)OCCCCCCCCCCC[P+](c1ccccc1)(c1ccccc1)c1ccccc1)O2 (stereo not drawn) |  |  | 1.09 µM |  |  |  | 1.47 µM |  | 2.29 µM | 3.28 µM | 0.264 µM | 0.413 µM | 0.411 µM | 0.707 µM |  |  | 
5 | CN(C)c1cccc2c1C(=O)C=CC21c2ccc(N(C)C)c3c(N(C)C)ccc(c23)C(c2ccccc2)C1c1ccccc1 (stereo not drawn) | 28.6 µM |  | 32.7 µM | 27.3 µM | 53.9 µM | 71.7 µM | 26 µM | 61.5 µM | 44.9 µM | 45.3 µM |  |  |  |  |  |  | 
6 | C=CCN1C(=O)/C(=C/c2ccc(C)cc2)N=C1SC1OC(COC(C)=O)C(OC(C)=O)C(OC(C)=O)C1OC(C)=O (stereo not drawn) | > 100 µM and 53.4 µM | > 100 µM | > 100 µM | > 100 µM |  | > 100 µM | > 100 µM | > 100 µM | > 100 µM |  |  |  | 16.7 µM and 41.6 µM |  | > 100 µM and 11.6 µM | > 100 µM and 38.3 µM | 5.59 µM and 31.5 µM
7 | O=C1/C(=C/c2cccc([N+](=O)[O-])c2)Sc2scc(-c3ccc([N+](=O)[O-])cc3)[n+]21 | 72.3 µM | 70 µM | 53.6 µM | > 100 µM |  | > 100 µM | > 100 µM | 24.6 µM | 38.8 µM |  |  |  |  |  |  |  | 
8 | CCOC(=O)NC(Nc1c(F)c(F)c(F)c(F)c1F)(C(F)(F)F)C(F)(F)F | > 100 µM | > 100 µM | > 100 µM | > 100 µM | > 100 µM | > 100 µM | > 100 µM | > 100 µM |  | > 100 µM |  |  |  |  |  |  | 
9 | O=C1OC(c2ccccc2)N(C(=O)c2ccccc2)C1Cc1ccc(OCc2ccccc2)cc1 (stereo not drawn) | 53.4 µM | > 100 µM |  | > 100 µM | > 100 µM | > 100 µM | > 100 µM | > 100 µM |  | > 100 µM |  |  |  |  |  |  | 
10 | COc1cc(/C=C2\CCC(C)/C(=C\c3cc(OC)c(OC)c(OC)c3)C2=O)cc(OC)c1OC (stereo not drawn) | > 100 µM | 3.37 µM |  | 9.52 µM | 34.4 µM | > 100 µM |  |  | 10.9 µM | > 100 µM |  |  |  |  |  |  | 
11 | CCOC(=O)C1CCC(=O)N1C(=O)c1ccccc1Cl (stereo not drawn) | > 100 µM |  | > 100 µM | > 100 µM | > 100 µM | > 100 µM | > 100 µM | > 100 µM | > 100 µM | > 100 µM |  |  |  |  |  |  | 
12 | CN1CCN(C2=C(Cl)C3(OCCS3)C(F)(F)C2(F)F)CC1 (stereo not drawn) | > 100 µM | > 100 µM | > 100 µM | > 100 µM | > 100 µM | > 100 µM | > 100 µM |  | > 100 µM | > 100 µM |  |  |  |  |  |  | 
13 | COC(=O)N1N=C(c2ccccc2)C1c1ccccc1 (stereo not drawn) |  | > 100 µM |  | 94 µM | > 100 µM | > 100 µM | > 100 µM | > 100 µM | > 100 µM | > 100 µM |  |  |  |  |  |  | 
14 | Cc1cccc(/C(Br)=C2/OC(=O)c3ccccc32)c1 | > 100 µM |  | > 100 µM | > 100 µM | > 100 µM | > 100 µM | > 100 µM | > 100 µM | > 100 µM | > 100 µM |  |  |  |  |  |  | 
15 | S=C1NC2=C(CSC/C2=C\c2ccccc2)C(c2ccccc2)N1 (stereo not drawn) | 97.4 µM | > 100 µM | 89.1 µM | > 100 µM | > 100 µM | > 100 µM | > 100 µM | > 100 µM | > 100 µM |  |  |  |  |  |  |  | 
16 | Nc1nc(Nc2ccccc2)sc1C(=O)c1ccco1 | 82.6 µM | 36.7 µM |  |  | > 100 µM | 43.2 µM | 33.3 µM | 28 µM | 41.9 µM | 40.8 µM |  |  |  |  |  |  | 
